Marks after values point to notes of the source that are not given here.
Columns and labels:
Type in all cases: in vivo
Botrytis cinerea = experiment: Test A: preventive spray on tomato seedlings, visual disease rating (tomato Botrytis)
Description: (§1) General protocol for preparing test suspensions for Tests A-F: the test compounds were first dissolved in acetone in an amount equal to 3% of the final volume and then suspended at the desired concentration (in ppm) in acetone and purified water (50/50 mix by volume) containing 250 ppm of the surfactant Trem® 014 (polyhydric alcohol esters). The resulting test suspensions were then used in Tests A-F. Spraying a 200 ppm test suspension to the point of run-off on the test plants was the equivalent of a rate of 800 g/ha. Unless otherwise indicated, the rating values indicate a 200 ppm test suspension was used. (An asterisk “*” next to the rating value indicates a 40 ppm test suspension was used.)
(§2) The test suspension was sprayed to the point of run-off on tomato seedlings. The following day the seedlings were inoculated with a spore suspension of Botrytis cinerea (the causal agent of tomato Botrytis) and incubated in saturated atmosphere at 20° C. for 48 h, and then moved to a growth chamber at 24° C. for 3 days, after which time visual disease ratings were made.
(§3) Results for Tests A-F are given in Table A. In the Table, a rating of 100 indicates 100% disease control and a rating of 0 indicates no disease control (relative to the controls). A dash (-) indicates no test results. An asterisk “*” next to the rating value indicates a 40 ppm test suspension was used.

Septoria tritici = experiment: Test D: preventive spray on wheat seedlings, visual disease rating (wheat leaf blotch)
Description: as §1
as §2, with “wheat” for “tomato”, “Septoria tritici” for “Botrytis cinerea”, “wheat leaf blotch)” for “tomato Botrytis)”, “24°” for “20°”, “20°” for “24°”, “19” for “3”
as §3

[1] = test system: Puccinia recondite f. sp. tritici; experiment: Test E2: preventive spray on wheat seedlings, visual disease rating (wheat leaf rust)
Description: as §1
The test suspension was sprayed to the point of run-off on wheat seedlings. The following day the seedlings were inoculated with a spore suspension of Puccinia recondite f. sp. tritici (the causal agent of wheat leaf rust) and incubated in a saturated atmosphere at 20° C. for 24 h, and then moved to a growth chamber at 20° C. for 7 days, after which time visual disease ratings were made.
as §3

[2] = test system: Blumeria graminis f. sp. tritici; experiment: Test F: preventive spray on wheat seedlings, visual disease rating (wheat powdery mildew)
Description: as §1
The test suspension was sprayed to the point of run-off on wheat seedlings. The following day the seedlings were inoculated with a spore dust of Blumeria graminis f. sp. tritici, (also known as Erysiphe graminis f. sp. tritici, the causal agent of wheat powdery mildew) and incubated in a growth chamber at 20° C. for 8 days, after which time visual disease ratings were made.
as §3

[3] = no asterisk: standard test suspension, not 40 ppm, 100 = 100% disease control, 0 = none
[4] = no asterisk: standard test suspension, not 40 ppm
[5] = asterisk: 40 ppm test suspension

Row | Structure (SMILES) | Test A rating (% disease control) (Botrytis cinerea; [3]) | Test D rating (% disease control) (Septoria tritici; [4]) | Test E2 rating (% disease control) [1, 4] | Test F rating (% disease control) [2, 4] | Test A rating (% disease control) (Botrytis cinerea; [5]) | Test D rating (% disease control) (Septoria tritici; [5]) | Test E2 rating (% disease control) [1, 5] | Test F rating (% disease control) [2, 5] | further results
1 | COc1nn(C)c(-c2ccc(F)cc2Cl)c1C(O)c1ccc(F)cc1Cl (centres unmarked) [compound 118] | 100% | 100% | 99% | 100% | – | – | – | – | –
2 | COc1ccc(C(O)c2c(C)nn(C)c2-c2ccc(F)cc2Cl)c(Cl)c1 (centres unmarked) [compound 169] | – | – | – | – | 0* % | 68* % | 88* % | 0* % | –
3 | COc1cc(F)c(-c2c(C(O)c3ccc(F)cc3Cl)c(C)nn2C)c(F)c1 (centres unmarked) [compound 171] | – | – | – | – | 100* % | 100* % | 100* % | 89* % | –
4 | Cc1nn(C)c(-c2c(F)cccc2Cl)c1C(SC#N)c1c(F)cc(F)cc1F (centres unmarked) [Compound 123] | – | – | – | – | 87* % | 100* % | 99* % | 90* % | –
5 | Cc1nn(C)c(-c2c(F)cccc2Br)c1C(=O)c1ccc(F)cc1Cl [compound 93] | 90% | 7% | 91% | 100% | – | – | – | – | –
6 | Cc1cc(F)ccc1C(O)c1c(Br)nn(C)c1-c1c(F)cccc1Cl (centres unmarked) [compound 149] | 100% | 100% | 100% | 100% | – | – | – | – | –
7 | Cc1nn(C)c(-c2c(F)cc(C#N)cc2F)c1C(O)c1ccc(F)cc1F (centres unmarked) [compound 112] | 80% | 100% | 100% | 97% | – | – | – | – | –
8 | Cc1cc(C)n(-c2c(C(O)c3ccc(F)cc3F)c(C)nn2C)n1 (centres unmarked) [compound 159] | 0% | 0% | 0% | 0% | – | – | – | – | –
9 | CC(=O)OC(c1ccc(F)cc1Cl)c1c(C)nn(C)c1-c1c(F)cccc1F (centres unmarked) [Compound 108] | – | – | – | – | 99* % | 100* % | 100* % | 100* % | –
10 | COc1ccc(C(O)c2c(C)nn(C)c2-c2c(F)cccc2Cl)c(Cl)c1 (centres unmarked) [compound 170] | – | – | – | – | 100* % | 100* % | 100* % | 98* % | –
11 | Cc1nn(C)c(-c2c(F)cncc2F)c1C(O)c1ccc(F)cc1F (centres unmarked) [compound 168] | – | – | – | – | 21* % | 100* % | 88* % | 100* % | –
12 | Cc1nn(C)c(-c2c(F)cccc2F)c1C(SC#N)c1ccc(F)cc1Cl (centres unmarked) [Compound 111] | 100% | 100% | 100% | 100% | – | – | – | – | –
13 | Cn1nc(Br)c(C(O)c2ccc(F)cc2F)c1-c1c(F)cccc1Cl (centres unmarked) [compound 131] | 98% | 100% | 100% | 98% | – | – | – | – | –
14 | COc1nn(C)c(-c2c(F)cc(F)cc2F)c1C(O)c1ccc(F)cc1F (centres unmarked) [compound 153] | – | – | – | – | 100* % | 100* % | 100* % | 100* % | –
15 | Cc1nn(C)c(-c2ccc(Cl)cc2Cl)c1C(O)c1ccc(F)cc1F (centres unmarked) [compound 97] | 99% | 100% | 100% | 99% | – | – | – | – | –
16 | Cn1nc(Br)c(C(O)c2ccc(F)cc2Cl)c1-c1c(F)cccc1Cl (centres unmarked) [compound 148] | 100% | 100% | 100% | 99% | – | – | – | – | –

Row | Structure (SMILES) | Test A rating (% disease control) (Botrytis cinerea; [3]) | Test D rating (% disease control) (Septoria tritici; [4]) | Test E2 rating (% disease control) [1, 4] | Test F rating (% disease control) [2, 4] | Test A rating (% disease control) (Botrytis cinerea; [5]) | Test D rating (% disease control) (Septoria tritici; [5]) | Test E2 rating (% disease control) [1, 5] | Test F rating (% disease control) [2, 5] | further results
17 | Cc1nn(C)c(-c2ccc(F)cc2Br)c1C(O)c1ccc(F)cc1Cl (centres unmarked) [compound 95] | – | – | – | – | 94* % | 99* % | 98* % | 95* % | –
18 | Cn1nc(Cl)c(C(O)c2ccc(F)cc2F)c1-c1c(F)cccc1Cl (centres unmarked) [compound 133] | 100% | 100% | 100% | 99% | – | – | – | – | –
19 | COc1cc(F)c(-c2c(C(O)c3c(F)cc(F)cc3F)c(C)nn2C)c(F)c1 (centres unmarked) [compound 173] | – | – | – | – | 87* % | 100* % | 100* % | 95* % | –
20 | Cn1ncc(C(O)c2ccc(F)cc2Cl)c1-c1c(F)cccc1F (centres unmarked) [compound 130] | 100% | 100% | 100% | 100% | – | – | – | – | –
21 | Cc1nn(C)c(-c2c(F)cccc2Cl)c1C(SC#N)c1ccc(F)cc1F (centres unmarked) [Compound 122] | – | – | – | – | 98* % | 100* % | 100* % | 99* % | –
22 | Cn1nc(Cl)c(C(O)c2ccc(F)cc2Br)c1-c1c(F)cccc1Cl (centres unmarked) [compound 134] | 100% | 100% | 100% | 99% | – | – | – | – | –
23 | Cc1nn(C)c(-c2ccc(F)cc2)c1C(O)c1ccc(F)cc1Cl (centres unmarked) [compound 105] | – | – | – | – | 0* % | 100* % | 98* % | 81* % | –
24 | Cc1cc(F)ccc1C(O)c1c(C)nn(C)c1-n1ccnc1C (centres unmarked) [compound 147] | – | – | – | – | 0* % | 0* % | 17* % | 0* % | –
25 | Cn1nc(Br)c(C(O)c2ccc(F)cc2Br)c1-c1c(F)cccc1Cl (centres unmarked) [compound 132] | 0% | – | – | 100% | – | 100* % | 99* % | – | –
26 | COc1nn(C)c(-c2c(F)cc(F)cc2F)c1C(O)c1ccccc1F (centres unmarked) [compound 154] | 100% | 100% | 100% | 100% | – | – | – | – | –
27 | COc1nn(C)c(-c2c(F)cccc2F)c1C(O)c1ccc(F)cc1C (stereo not drawn) [Compound 157, 5-(2,6-difluorophenyl)-α-(4-fluoro-2-methylphenyl)-3-methoxy-1-methyl-1H-pyrazole-4-methanol] | – | – | – | – | – | – | – | – | pest or weed control at 40 ppm (Botrytis cinerea; Botrytis cinerea, 120 h, asterisk: 40 ppm test suspension): 100%; pest or weed control at 40 ppm (Septoria tritici; Zymoseptoria tritici, 504 h, asterisk: 40 ppm test suspension): 100%; pest or weed control at 40 ppm ([1]; 192 h, asterisk: 40 ppm test suspension): 100%; pest or weed control at 40 ppm ([2]; Blumeria graminis, 192 h, asterisk: 40 ppm test suspension): 100%
28 | COc1ccc(C(O)c2c(OC)nn(C)c2-c2c(F)cccc2F)c(F)c1 (centres unmarked) [compound 161] | – | – | – | – | 94* % | 100* % | 92* % | 90* % | –
29 | COc1nn(C)c(-c2c(F)cccc2F)c1C(O)c1ccc(F)cc1F (centres unmarked) [compound 156] | – | – | – | – | 100* % | 100* % | 99* % | 99* % | –
30 | Cn1nc(Br)c(C(O)c2ccc(Cl)cc2Cl)c1-c1c(F)cccc1F (centres unmarked) [compound 163] | 100% | 100% | 100% | 98% | – | – | – | – | –
31 | COc1nn(C)c(-c2c(F)cccc2F)c1C(O)c1ccc(F)cc1Cl (centres unmarked) [compound 126] | 100% | 100% | 100% | 100% | – | – | – | – | –
32 | Cn1nc(Cl)c(C(O)c2ccc(F)cc2Br)c1-c1c(F)cccc1F (centres unmarked) [compound 136] | 100% | 100% | 100% | 100% | – | – | – | – | –

— patent US8754115B2, “Fungicidal pyrazoles” (E I du Pont de Nemours and Company, priority 2010, dated 2014)
